In ChEMBL document CHEMBL3992527, “Design and Synthesis of Novel Nonsteroidal Anti-Inflammatory Drugs and Carbonic Anhydrase Inhibitors Hybrids (NSAIDs-CAIs) for the Treatment of Rheumatoid Arthritis” (J Med Chem, 2017) one finds Ki and Activity data, which are given here for 17 molecules.

The target of data set [1] is Carbonic anhydrase 1 (Homo sapiens, UniProt P00915). As to the kind of experiment: Inhibition of recombinant human CA1 preincubated for 15 mins by stopped-flow CO2 hydration assay.
The target of data set [2] is Carbonic anhydrase 2 (Homo sapiens, UniProt P00918). Description: Inhibition of recombinant human CA2 preincubated for 15 mins by stopped-flow CO2 hydration assay.
Data set [3] has as its target Carbonic anhydrase 7 (Homo sapiens, UniProt P43166). As to the kind of experiment: Inhibition of recombinant human CA7 preincubated for 15 mins by stopped-flow CO2 hydration assay.
For data set [4], the target named is Carbonic anhydrase 9 (Homo sapiens, UniProt Q16790).
Description: Inhibition of recombinant human CA9 catalytic domain preincubated for 15 mins by stopped-flow CO2 hydration assay
Data set [5] concerns Rattus norvegicus. Description: Antihyperalgesic activity in complete Freund's adjuvant-induced Sprague-Dawley rat rheumatoid arthritis model assessed as increase in weight tolerance on ipsilateral paw at 10 mg/kg, po administered once on day 14 post complete Freund's adjuvant challenge measured after 30 to 45 mins post dose by analgesimetry. The class given is functional, organism-based.

Data set [6] deals with Rattus norvegicus. Description: Effect on normal pain sensitivity in complete Freund's adjuvant-induced Sprague-Dawley rat rheumatoid arthritis model assessed as change in contralateral paw withdrawal threshold at 10 mg/kg, po administered once on day 14 post complete Freund's adjuvant challenge measured after 15 to 75 mins by analgesimetry. It counts as ADME, organism-based. The settings on record: in vivo.

Data set [7] relates to Rattus norvegicus. Description: Antihyperalgesic activity in complete Freund's adjuvant-induced Sprague-Dawley rat rheumatoid arthritis model assessed as improvement in postural imbalance by measuring difference between weight burdened on contralateral and ipsilateral paw at 10 mg/kg, po administered once on day 14 post complete Freund's adjuvant challenge measured after 15 to 30 mins by incapacitance test. It counts as functional, organism-based.

For data set [8], the target named is Carbonic anhydrase 12 (Homo sapiens, UniProt O43570). Description: Inhibition of recombinant human CA12 preincubated for 15 mins by stopped-flow CO2 hydration assay.
Data set [9] relates to Rattus norvegicus. Description: Antihyperalgesic activity in complete Freund's adjuvant-induced Sprague-Dawley rat rheumatoid arthritis model assessed as weight tolerance on ipsilateral paw at 10 mg/kg, po administered once on day 14 post complete Freund's adjuvant challenge measured at 30 mins post dose by analgesimetry (reference value: 47.6 +/- 1.2 g). It counts as functional.

The test system of data set [10] is Rattus norvegicus. Description: Antihyperalgesic activity in complete Freund's adjuvant-induced Sprague-Dawley rat rheumatoid arthritis model assessed as weight tolerance on ipsilateral paw at 10 mg/kg, po administered once on day 14 post complete Freund's adjuvant challenge measured at 45 mins post dose by analgesimetry (reference value: 47.6 +/- 1.2 g). The class given is functional.

In data set [11] the test system is Rattus norvegicus. Description: Antihyperalgesic activity in complete Freund's adjuvant-induced Sprague-Dawley rat rheumatoid arthritis model assessed as increase in weight tolerance on ipsilateral paw at 10 mg/kg, po administered once on day 14 post complete Freund's adjuvant challenge measured at 75 mins post dose by analgesimetry. It counts as functional, organism-based.

Data set [12] relates to Rattus norvegicus. As to the kind of experiment: Antihyperalgesic activity in complete Freund's adjuvant-induced Sprague-Dawley rat rheumatoid arthritis model assessed as improvement in postural imbalance by measuring difference between weight burdened on contralateral and ipsilateral paw at 10 mg/kg, po administered once on day 14 post complete Freund's adjuvant challenge measured at 30 mins post dose by incapacitance test (reference value: 45.6 +/- …. It counts as functional.

In data set [13] the test system is Rattus norvegicus. As to the kind of experiment: Antihyperalgesic activity in complete Freund's adjuvant-induced Sprague-Dawley rat rheumatoid arthritis model assessed as improvement in postural imbalance by measuring difference between weight burdened on contralateral and ipsilateral paw at 10 mg/kg, po administered once on day 14 post complete Freund's adjuvant challenge measured at 45 mins post dose by incapacitance test (reference value: 45.6 +/- …. It counts as functional.

Data set [14] concerns Rattus norvegicus. Description: Antihyperalgesic activity in complete Freund's adjuvant-induced Sprague-Dawley rat rheumatoid arthritis model assessed as improvement in postural imbalance by measuring difference between weight burdened on contralateral and ipsilateral paw at 10 mg/kg, po administered once on day 14 post complete Freund's adjuvant challenge measured at 60 mins post dose by incapacitance test. The class given is functional, organism-based.

The target of data set [15] is Carbonic anhydrase 4 (Homo sapiens, UniProt P22748).
Description: Inhibition of recombinant human CA4 preincubated for 15 mins by stopped-flow CO2 hydration assay
Data set [16] has as its system Rattus norvegicus. Description: Antihyperalgesic activity in complete Freund's adjuvant-induced Sprague-Dawley rat rheumatoid arthritis model assessed as increase in weight tolerance on ipsilateral paw at 10 mg/kg, po administered once on day 14 post complete Freund's adjuvant challenge measured after 45 mins post dose by analgesimetry. It counts as functional, organism-based.

Data set [17] has as its system Rattus norvegicus. As to the kind of experiment: Antihyperalgesic activity in complete Freund's adjuvant-induced Sprague-Dawley rat rheumatoid arthritis model assessed as increase in weight tolerance on ipsilateral paw at 10 mg/kg, po administered once on day 14 post complete Freund's adjuvant challenge measured after 15 to 75 mins post dose by analgesimetry. It counts as functional, organism-based.

Data set [18] deals with Rattus norvegicus. As to the kind of experiment: Antihyperalgesic activity in complete Freund's adjuvant-induced Sprague-Dawley rat rheumatoid arthritis model assessed as increase in weight tolerance on ipsilateral paw at 100 mg/kg, po administered once on day 14 post complete Freund's adjuvant challenge measured after 15 to 30 mins post dose by analgesimetry. The class given is functional, organism-based.

Data set [19] deals with Rattus norvegicus. As to the kind of experiment: Antihyperalgesic activity in complete Freund's adjuvant-induced Sprague-Dawley rat rheumatoid arthritis model assessed as improvement in postural imbalance by measuring difference between weight burdened on contralateral and ipsilateral paw at 100 mg/kg, po administered once on day 14 post complete Freund's adjuvant challenge measured after 15 to 30 mins by incapacitance test. The class given is functional, organism-based.

Each structure is given as a SMILES string. The source made the active and inactive calls.

Chain of Carbonic anhydrase 12 (O43570 whole entry): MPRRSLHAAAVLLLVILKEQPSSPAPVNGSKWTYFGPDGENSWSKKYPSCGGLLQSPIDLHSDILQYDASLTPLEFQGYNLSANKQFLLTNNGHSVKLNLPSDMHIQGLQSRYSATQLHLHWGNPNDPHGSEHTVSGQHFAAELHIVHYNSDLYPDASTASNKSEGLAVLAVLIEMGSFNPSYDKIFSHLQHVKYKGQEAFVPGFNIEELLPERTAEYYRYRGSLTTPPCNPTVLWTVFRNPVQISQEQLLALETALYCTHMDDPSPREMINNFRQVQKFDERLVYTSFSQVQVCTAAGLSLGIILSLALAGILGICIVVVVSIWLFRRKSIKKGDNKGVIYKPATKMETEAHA
Chain of Carbonic anhydrase 4 (P22748 whole entry): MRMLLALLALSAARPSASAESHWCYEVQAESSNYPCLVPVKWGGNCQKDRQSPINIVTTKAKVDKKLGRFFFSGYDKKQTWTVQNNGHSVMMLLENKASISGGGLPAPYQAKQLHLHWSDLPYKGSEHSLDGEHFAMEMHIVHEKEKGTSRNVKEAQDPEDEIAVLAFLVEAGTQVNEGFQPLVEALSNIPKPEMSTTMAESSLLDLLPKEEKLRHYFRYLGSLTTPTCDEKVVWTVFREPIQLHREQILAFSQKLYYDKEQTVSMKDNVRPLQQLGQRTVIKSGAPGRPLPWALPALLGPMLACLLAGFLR
Chain of Carbonic anhydrase 7 (P43166 whole entry): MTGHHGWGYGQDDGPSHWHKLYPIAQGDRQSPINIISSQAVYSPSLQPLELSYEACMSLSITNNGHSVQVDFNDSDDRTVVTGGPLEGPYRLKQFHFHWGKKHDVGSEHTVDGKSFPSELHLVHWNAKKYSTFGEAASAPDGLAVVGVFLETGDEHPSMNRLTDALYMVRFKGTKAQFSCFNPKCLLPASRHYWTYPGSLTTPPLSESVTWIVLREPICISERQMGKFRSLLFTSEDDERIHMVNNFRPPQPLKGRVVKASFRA
Chain of Carbonic anhydrase 1 (P00915 whole entry): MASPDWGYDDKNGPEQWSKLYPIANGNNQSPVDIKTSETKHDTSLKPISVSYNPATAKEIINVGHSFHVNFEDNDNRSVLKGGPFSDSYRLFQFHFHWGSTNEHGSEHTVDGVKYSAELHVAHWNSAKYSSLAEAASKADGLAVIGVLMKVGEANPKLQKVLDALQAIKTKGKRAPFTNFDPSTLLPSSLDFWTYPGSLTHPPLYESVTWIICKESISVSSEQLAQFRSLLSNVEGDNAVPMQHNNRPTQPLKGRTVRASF

In general, Ki refers to a dissociation constant, usually derived from enzyme kinetics or from competition with a known ligand. For `CC1=C(CC(=O)NCCOc2ccc3ccc(=O)oc3c2)c2cc(F)ccc2/C1=C\c1ccc([S+](C)[O-])cc1` (stereo not given), the Ki was above 100 nM in data set [1], above 100 nM in [2], above 100 nM in data set [3] and 27.9 nM in [4]. The outcome in data set [5] and in data set [7] was Active. In addition, in data set [6], the Activity result is “Non-Toxic”.

Turning to `CC(C)Cc1ccc(C(C)C(=O)NCCOc2ccc3ccc(=O)oc3c2)cc1` (racemic), the Ki is above 100 nM in data set [1]; above 100 nM in data set [2]; above 100 nM in [3]; above 100 nM in data set [4]; 39 nM in data set [8]; 9.1 nM in data set [15]. Besides, the Activity was 63.8 g in data set [9]; 61.3 g in [10]; “Non-Toxic” in data set [6]; 7.9 g in [12]; 11.1 g in data set [13]. For the same molecule, the result in data set [11] and in [14] was Active.

Regarding `O=C(c1ccccc1)c1ccc2n1CCC2C(=O)NCCOc1ccc2ccc(=O)oc2c1` (racemic), the outcome in [16] was Active. Besides, the Ki in data set [1], in data set [2], in data set [3], in data set [4] and in data set [8] was above 100 nM in each case. The Activity entry in data set [6] is recorded as “Non-Toxic”.

As to `COc1ccc2cc([C@H](C)C(=O)NCCOc3ccc4oc(=O)ccc4c3)ccc2c1`, the Ki in [1], in data set [2], in [3], in data set [4] and in [8] was above 100 nM in each case.

Consider `CC1=C(CC(=O)NCCOc2ccc3oc(=O)ccc3c2)c2cc(F)ccc2/C1=C\c1ccc([S+](C)[O-])cc1` (stereo not given), for which the Ki in [1] was above 100 nM; in [2], above 100 nM; in [3], above 100 nM; in data set [4] it was 30.8 nM.

With `COc1ccc2c(c1)c(CC(=O)NCCOc1ccc3ccc(=O)oc3c1)c(C)n2C(=O)c1ccc(Cl)cc1`, the Ki in data set [1] is above 100 nM; in data set [2], above 100 nM; in data set [3], above 100 nM; in [4] it was 20.1 nM. Also, the Activity result in data set [6] is given as “Non-Toxic”. Besides, in [17], the result was inactive.

Regarding `CC(C(=O)NCCOc1ccc2oc(=O)ccc2c1)c1ccc(-c2ccccc2)c(F)c1` (racemic), the Ki in data set [1], in data set [2] and in data set [3] was above 100 nM each time. The Activity result in data set [6] is “Non-Toxic”. Besides, the outcome in data set [17] was inactive.

Regarding `CC(C)Cc1ccc(C(C)C(=O)NCCOc2ccc3oc(=O)ccc3c2)cc1` (stereo not given), the Ki is above 100 nM in data set [1]; above 100 nM in data set [2]; above 100 nM in data set [3]; above 100 nM in [4]; above 100 nM in data set [8]; 0.44 nM in [15].

With `O=C(Cc1ccccc1Nc1c(Cl)cccc1Cl)NCCOc1ccc2ccc(=O)oc2c1`, the Ki in data set [1] was above 100 nM; in data set [2] it was above 100 nM; in [3] it was above 100 nM; in data set [15], 9.1 nM. In addition, the Activity result in [6] is reported as “Non-Toxic”. For the same molecule, the result in [17] was inactive.

Consider `CC(C)Cc1ccc(C(C)C(=O)O)cc1` (stereo not given), for which the result in data set [18] and in [19] was Active.

Regarding `CC(C(=O)NCCOc1ccc2oc(=O)ccc2c1)c1cccc(C(=O)c2ccccc2)c1` (racemic), the Ki is above 100 nM in data set [1]; above 100 nM in data set [2]; above 100 nM in [3]; 54.7 nM in [4]; above 100 nM in data set [8].

`CC(C(=O)NCCOc1ccc2ccc(=O)oc2c1)c1ccc(-c2ccccc2)c(F)c1` (racemic): the result in [16] and in data set [7] was Active. Moreover, the Ki in [1], in [2], in [3], in [4] and in [8] was above 100 nM throughout. The Activity result in data set [6] is given as “Non-Toxic”.

Take `O=C(Cc1ccccc1Nc1c(Cl)cccc1Cl)NCCOc1ccc2oc(=O)ccc2c1`: the Ki in [1] is above 100 nM; in data set [2] it was above 100 nM; in data set [3], above 100 nM; in data set [15] it was 5.6 nM.

As to `O=C(c1ccccc1)c1ccc2n1CCC2C(=O)NCCOc1ccc2oc(=O)ccc2c1` (racemic), the Ki in data set [1] is above 100 nM; in data set [2], above 100 nM; in data set [3], above 100 nM; in data set [4], 31.8 nM; in data set [8], above 100 nM.

As to `CC(C(=O)NCCOc1ccc2ccc(=O)oc2c1)c1cccc(C(=O)c2ccccc2)c1` (racemic), the Ki in data set [1] was above 100 nM; in data set [2], 85.4 nM; in data set [3] it was above 100 nM; in data set [4], above 100 nM. In data set [6], the Activity result was “Non-Toxic”. In data set [17], the outcome was inactive.

As for `COc1ccc2c(c1)c(CC(=O)NCCOc1ccc3oc(=O)ccc3c1)c(C)n2C(=O)c1ccc(Cl)cc1`, the result in data set [16] and in data set [7] was Active. Further, the Ki in data set [1] is above 100 nM; in data set [2], above 100 nM; in data set [3], above 100 nM; in data set [4], 31.3 nM. Also, the Activity entry in data set [6] was “Non-Toxic”.

As to `COc1ccc2cc([C@H](C)C(=O)NCCOc3ccc4ccc(=O)oc4c3)ccc2c1`, the Ki in [1], in [2], in data set [3] and in data set [4] was above 100 nM throughout.
